According to ChEMBL document CHEMBL5050847, “Targeting pleckstrin-2 for treating cancer” (2020):
Activity calls are given as the source filed them. No cut-off for these calls is given here.

What was measured:
Mus musculus [1] = assay: Protection against Jak2 V617F-konckin induced myeloproliferation in mouse assessed as reduction in red blood cell count at 25 mg/kg, ip administered once every two days; format: functional, organism-based; settings: time 2.0 day
Mus musculus [2] = assay: Protection against Jak2 V617F-konckin induced myeloproliferation in mouse assessed as reduction in extramedullary erythropoiesis at 25 mg/kg, ip administered once every two days; format: functional, organism-based; settings: time 2.0 day
[3] = Inhibition of Plek2 in Ter119-negative mouse fetal liver erythroid progenitor cells overexpressing Plek2 cultured in erythropoietin containing medium assessed as decrease in cell proliferation measured by HTS assay; format: tissue-based
Mus musculus [4] = assay: Protection against Jak2 V617F-konckin induced myeloproliferation in mouse assessed as reduction in spleen size at 25 mg/kg, ip administered once every two days; format: functional, organism-based; settings: time 2.0 day
Mus musculus [5] = assay: Protection against erythropoietin-induced myeloproliferation in wild type mouse assessed as reduction in erythrocytosis in spleen red pulp at 40 mg/kg, ip administered every 2 days for 8 days; format: functional, organism-based; settings: time 2.0 day
Mus musculus [6] = assay: Protection against erythropoietin-induced myeloproliferation in wild type mouse assessed as reduction in vascular occlusions at 40 mg/kg, ip administered every 2 days for 8 days; format: functional, organism-based; settings: time 2.0 day
Mus musculus [7] = assay: Protection against erythropoietin-induced myeloproliferation in wild type mouse assessed as improvement in lung vasculature at 40 mg/kg, ip administered every 2 days for 8 days; format: functional, organism-based; settings: time 2.0 day
Jurkat = assay: Effect on Plek2 cell membrane localization in human Jurkat cells overexpressing GFP-Plek2 at 100 nM measured by real-time confocal imaging analysis; format: functional, cell-based
Mus musculus [8] = assay: Protection against erythropoietin-induced myeloproliferation in wild type mouse assessed as reduction in reticulocytosis at 40 mg/kg, ip administered every 2 days for 8 days; format: functional, organism-based; settings: time 2.0 day
Mus musculus [9] = assay: Protection against erythropoietin-induced myeloproliferation in wild type mouse assessed as reduction in leucocytosis at 40 mg/kg, ip administered every 2 days for 8 days; format: functional, organism-based; settings: time 2.0 day
Bone marrow cell = assay: Inhibition of Plek2 in mouse bone marrow lineage negative cells expressing wild-type Plek2 and treated with erythropoietin at 10 uM assessed as inhibition of Akt phosphorylation measured by western blot analysis; format: cell-based
Mus musculus [10] = assay: Protection against erythropoietin-induced myeloproliferation in wild type mouse assessed as reduction in splenomegaly at 40 mg/kg, ip administered every 2 days for 8 days; format: functional, organism-based; settings: time 2.0 day
[11] = Toxicity in Jak2 V617F-konckin induced myeloproliferation in mouse assessed as induction of side effects at 25 mg/kg, ip administered once every two days; format: organism-based; settings: in vivo, 48 h, time 2 day
Mus musculus [12] = assay: Protection against Jak2 V617F-konckin induced myeloproliferation in mouse assessed as reduction in vascular occlusions in lung at 25 mg/kg, ip administered once every two days; format: functional, organism-based; settings: time 2.0 day
[13] = Acute toxicity in mouse assessed as drug tolerability time at 40 mg/kg, ip administered as single dose; format: organism-based; settings: in vivo
Mus musculus [14] = assay: Protection against Jak2 V617F-konckin induced myeloproliferation in mouse assessed as normalization of white blood cell count at 25 mg/kg, ip administered once every two days; format: functional, organism-based; settings: time 2.0 day
[15] = Toxicity in wild type mouse assessed as hematologic abnormalities at 40 mg/kg, ip administered every 2 days for 8 days; format: organism-based; settings: in vivo, 48 h, time 2 day
[16] = Inhibition of Plek2 in Ter119-positive mouse fetal liver erythroid progenitor cells cultured in erythropoietin containing medium assessed as decrease in cell proliferation measured by HTS assay; format: tissue-based
Homo sapiens = species: Homo sapiens; assay: Binding affinity towards GST-tagged Plek2 (unknown origin) at 200 uM measured by isothermal calorimetry (ITC) assay relative to control
[17] = Inhibition of Plek2 in Ter119-positive mouse fetal liver erythroid progenitor cells cultured in erythropoietin containing medium assessed as decrease in terminal enucleation of erythroblasts measured by HTS assay; format: tissue-based
COS-7 = assay: Inhibition of Plek2 in African green monkey COS-7 cells overexpressing Plek2 at 10 uM assessed as decrease in lamellipodia formation; format: cell-based; settings: Chlorocebus aethiops

CN1CCN(C(c2ccc(Cl)cc2)C(O)C(=O)c2c[nH]c3ccccc23)CC1 (stereo unspecified)
Activity (Mus musculus [1]): Active
Activity (Mus musculus [2]): Active
IC50 [3]: < 10 µM
Activity (Mus musculus [4]): Active
Activity (Mus musculus [5]): Active
Activity (Mus musculus [6]): Active
Activity (Mus musculus [7]): Active
Activity (Jurkat): Active
Activity (Mus musculus [8]): Active
Activity (Mus musculus [9]): Active
inhibition (Bone marrow cell): Active
Activity (Mus musculus [10]): Active
Activity [11]: Non-Toxic
Activity (Mus musculus [12]): Active
Time [13]: 2 days
Activity (Mus musculus [14]): Active
Activity [15]: Non-Toxic

O=C(c1c[nH]c2ccccc12)C(O)C(c1ccccc1)N1CCN(CCO)CC1 (stereo unspecified)
IC50 [16]: 40 µM
Activity (Homo sapiens): Active
IC50 [17]: 40 µM
inhibition (COS-7): Active
